The values that follow come from patent US20260055088A1, “HETEROCYCLIC COMPOUND, METHOD FOR PREPARING SAME, AND PHARMACEUTICAL USE THEREOF” (Jiangsu Hengrui Pharmaceuticals Co., Ltd., priority 2022, published 2026).

The target of data set [1] is Nav1.8 ion channel stably expressed on HEK293 cells (Homo sapiens (Human), UniProt Q9Y5Y9). Briefly: Inhibitory activity against Nav1.8, manual patch clamp. Type of data set: cell-based. The note with it: resting protocol (-80 mV to 10 mV), 1 μM TTX, read-out: IC50 for the inhibition of Nav1.8 channel activity. (In general: The patch-clamp technique gives a direct electrical read-out from membranes.)

The nature of data set [2]: Pharmacokinetic evaluation in SD rats (i.g.). The note with it: male, Sprague-Dawley (SD), rat, plasma, po, 2.0 mg/kg; for AUC(0-t): read-out: Area under curve AUC0-t; for CL/F: read-out: Clearance rate CL/F; for half-life: read-out: Half-life T½ (converted); for Cmax: read-out: Plasma concentration Cmax. The class given is in vivo. As for the experimental part:
SD rats were used as test animals. After intragastric (i.g.) administration of the example compounds to SD rats, the plasma concentrations of the compounds at different time points were determined by the LC/MS/MS method. The pharmacokinetic behaviors of the compounds of the present disclosure in SD rats were studied, and their pharmacokinetic profiles were evaluated.
Compounds 16 and 32: Four male SD rats, provided by Vital River Laboratory Animal Technology Co., Ltd. The animals were fasted overnight and then intragastrically dosed.
Compound 38: Two male SD rats, provided by Zhejiang Vital River Laboratory Animal Technology Co., Ltd. The animals were fasted overnight and then intragastrically dosed.
Compounds 16 and 32: Certain amounts of the test compounds were weighed out, and 5% DMSO+5% tween 80+90% normal saline was added to prepare 0.2 mg/mL colorless clear solutions.
Compound 38: A certain amount of the test compound was weighed out, and 25% PEG400+75% (10% TPGS+1% HPMC K100LV) was added to prepare a 5 mg/mL colorless clear solution.
Compounds 16 and 32: The administration dose was 2 mg/kg, and the administration volume was 10.0 mL/kg.
Compound 38: The administration dose was 50 mg/kg, and the administration volume was 10.0 mL/kg.
0.2-mL blood samples were collected from the orbit before administration and 0.25, 0.5, 1.0, 2.0, 4.0, 6.0, 8.0, 11.0, and 24.0 h after administration, placed into EDTA-K2 anticoagulation test tubes, and centrifuged at 10,000 rpm for 1 min (4° C.), and the plasma was separated within 1 h and stored with dry ice before analysis. The procedures from the blood collection to the centrifugation were performed under ice-bath conditions. Access to food was given 2 h after administration.
Compounds 16 and 32: Determination of the plasma concentrations of the test compounds in SD rats after the compounds were administered at different concentrations: A 25-μL sample of the SD rat plasma collected at each time point after administration was taken, and 200 μL of acetonitrile containing an internal standard (verapamil, 100 ng/mL) was added. The mixture was vortexed and centrifuged at 3700 rpm for 10 min. 0.1 μL of the supernatant was taken for LC/MS/MS analysis.
Compound 38: Determination of the plasma concentration of the test compound in SD rats after the compound was administered at different concentrations: A 25-μL sample of the SD rat plasma collected at each time point after administration was taken, and 200 μL of acetonitrile containing an internal standard (dexamethasone, 100 ng/mL) was added. The mixture was vortexed and centrifuged at 4000 rpm for 15 min. 1 μL of the supernatant was taken for LC/MS/MS analysis.

pIC50: −log10 of the molar value.

By pIC50 is commonly meant −log10 of the IC50, conventionally taken in molar units. The bioavailability is the share of a dose that reaches the circulation, judged against a reference dose that is usually intravenous. Low readings indicate poor availability, high ones good availability. What is called half-life is how long it takes for the measured level to halve. On to `COc1c([C@H]2[C@H](C(=O)Nc3ccnc(/C(N)=N/O)c3)O[C@@](C)(C(F)(F)F)[C@H]2C)ccc(F)c1F` [Example 32], for which the pIC50 in data set [1] is 9.03. Moreover, in data set [2], the bioavailability is 24.7%, the AUC(0-t) amounted to 321 ng·h/mL, the CL/F is 96.9 mL/min/kg and the half-life is 2.6 h. Besides, the Cmax in data set [2] turned out to be 85.7 ng/mL.
In the case of `CO/N=C(\N)c1cc(NC(=O)[C@@H]2O[C@@](C)(C(F)(F)F)[C@@H](C)[C@H]2c2ccc(F)c(F)c2OC)ccn1` [Example 16], in data set [1], the pIC50 was 9.48. In data set [2], the bioavailability came out at 51.3%, the AUC(0-t) came to 329 ng·h/mL, the CL/F was 101 mL/min/kg and the half-life is 9.1 h. For the same molecule, in data set [2], the Cmax amounted to 120 ng/mL.
